Measured values taken from patent US12478617B2, “Lipidated peptide inhibitors of interleukin-23 receptor” (JANSSEN BIOTECH, INC., priority 2021, dated 2025).
Like-named read-outs stand apart in the source and are kept apart here. Starred links: 1 amine or outer side, 2 acyl side, 3 side chain; linkers in the order of their positions; H or OH if unused. Positions of bridges follow the written chain, without caps; N, C: chain ends. Non-standard residues stand in square brackets, D forms with d. Residues, ends and D or L forms follow the SMILES beside them. Groups on a side chain read outwards from the residue. *: point of attachment. X5 = O=C(O)CCCCCCCCCCCCCCCCC(=O)N[C@@H](CCN*)C(=O)O; Trp(7-Me) = Cc1cccc2c(C[C@H](N)C(=O)O)c[nH]c12; C20 diacid = O=C(O)CCCCCCCCCCCCCCCCCCC(=O)*; γGlu = O=C(O)[C@H](CCC(=O)[*:2])N[*:1]; 2Nal = N[C@@H](Cc1ccc2ccccc2c1)C(=O)O; AEF = NCCOc1ccc(C[C@H](N)C(=O)O)cc1; Trx = NC[C@H]1CC[C@H](C(=O)O)CC1; 3Pal = N[C@@H](Cc1cccnc1)C(=O)O; Pen = CC(C)(S)[C@H](N)C(=O)O; Thp = NC1(C(=O)O)CCOCC1; AEEA = NCCOCCOCC(=O)O; Sar = CNCC(=O)O

Legend:
[1] = from Ac-Pen-Asn-Thr-7MeTrp-Lys(Ac)-Pen-AEF-2Nal-THP-Lys(PEG2PEG2gEC18OH)-Asn-3Pya-Sar-NH2; disulfide bond; 20-membered ring; I2/AcOH; ACN/H2O; 0.382 mM
IL-23R = target: T1, IL-23R (Homo sapiens, UniProt Q5VWK5); assay: IL23R Reporter Assay; format: cell-based
T1 construct: HEK293 cells containing IL-23R, IL-12RP31 and a firefly luciferase reporter gene driven by a STAT-inducible promoter (Promega); host or cells: HEK293
T1 sequence (Q5VWK5 24-629): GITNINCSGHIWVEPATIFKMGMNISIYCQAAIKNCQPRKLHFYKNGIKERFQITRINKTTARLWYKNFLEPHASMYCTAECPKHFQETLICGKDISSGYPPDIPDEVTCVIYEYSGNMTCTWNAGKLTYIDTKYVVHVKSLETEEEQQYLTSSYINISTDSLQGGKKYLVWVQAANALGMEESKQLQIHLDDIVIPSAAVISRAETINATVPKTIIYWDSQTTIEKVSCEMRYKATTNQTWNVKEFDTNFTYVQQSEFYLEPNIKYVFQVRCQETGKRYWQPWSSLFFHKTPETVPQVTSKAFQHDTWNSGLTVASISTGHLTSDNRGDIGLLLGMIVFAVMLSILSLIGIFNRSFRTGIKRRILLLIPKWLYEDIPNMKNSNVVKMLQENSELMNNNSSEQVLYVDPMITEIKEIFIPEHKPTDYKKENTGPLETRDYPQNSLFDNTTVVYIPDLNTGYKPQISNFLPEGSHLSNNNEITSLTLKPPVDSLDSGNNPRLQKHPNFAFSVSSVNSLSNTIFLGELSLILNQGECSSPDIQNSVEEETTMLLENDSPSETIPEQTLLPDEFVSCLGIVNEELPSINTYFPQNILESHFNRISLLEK
Procedure, shortened: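 Luminescence from BioGlo, read after cells were moved to 20 °C, followed a 5 h incubation at 37 °C, 5% CO2 with DMSO-diluted test compounds.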

Molecule	IC50 (IL-23R) [nM]	other results
CC(=O)NCCCC[C@@H]1NC(=O)[C@H](Cc2c[nH]c3c(C)cccc23)NC(=O)[C@H]([C@@H](C)O)NC(=O)[C@H](CC(N)=O)NC(=O)[C@@H](NC(C)=O)C(C)(C)SSC(C)(C)[C@@H](C(=O)N[C@@H](Cc2ccc(OCCN)cc2)C(=O)N[C@@H](Cc2ccc3ccccc3c2)C(=O)NC2(C(=O)N[C@@H](CCCCNC(=O)COCCOCCNC(=O)COCCOCCNC(=O)CC[C@H](NC(=O)CCCCCCCCCCCCCCCCC(=O)O)C(=O)O)C(=O)N[C@@H](CC(N)=O)C(=O)N[C@@H](Cc3cccnc3)C(=O)N(C)CC(N)=O)CCOCC2)NC1=O		ring closure, yield after HPLC [1]: 24%
CC(=O)NCCCC[C@@H]1NC(=O)[C@H](Cc2c[nH]c3c(C)cccc23)NC(=O)[C@H]([C@@H](C)O)NC(=O)[C@H](CC(N)=O)NC(=O)[C@@H](NC(C)=O)C(C)(C)SSC(C)(C)[C@@H](C(=O)N[C@@H](Cc2ccc(OCCN)cc2)C(=O)N[C@@H](Cc2ccc3ccccc3c2)C(=O)NC2(C(=O)N[C@@H](CCCCNC(=O)COCCOCCNC(=O)COCCOCCNC(=O)CC[C@H](NC(=O)[C@H]3CC[C@H](CNC(=O)CCCCCCCCCCCCCCCCCCC(=O)O)CC3)C(=O)O)C(=O)N[C@@H](CC(N)=O)C(=O)N[C@@H](Cc3cccnc3)C(=O)N(C)CC(N)=O)CCOCC2)NC1=O [Example 128, MeCO-Pen*-N-T-7MeW-K(Ac)-Pen*-AEF-2Nal-THP-K(PEG2PEG2gETrxC20OH)-N-3Pya-Sar-CONH2] (Ac-[Pen]NT[Trp(7-Me)]K(Ac)[Pen][AEF][2Nal][Thp]K([AEEA-AEEA-γGlu-Trx-C20 diacid])N[3Pal][Sar]-NH2; disulfide 1-6)	0.1	
MeCO-r-Pen(3)-N15-T-7MeW-K(Ac)-Pen(3)-AEF-2Nal-THP-E-N15-3Pya-Sar-K(PEG2PEG2gEC18OH)-CONH2 [Compound 354]		IC50 (IL-23R; IL23R reporter assay, HEK293 cells with IL-23R and STAT-inducible luciferase reporter, 10 ng/mL IL-23, 5 h, Table 5b 'IL-23 Binding Data'): 1280 nM

Now from value to molecule, other results behind:

IC50 (IL-23R) [nM]	Molecule	other results
0.24	CC(=O)NCCCC[C@@H]1NC(=O)[C@H](Cc2c[nH]c3c(C)cccc23)NC(=O)[C@H]([C@@H](C)O)NC(=O)[C@H](CC(N)=O)NC(=O)[C@@H](NC(=O)[C@@H](CCCNC(=N)N)NC(C)=O)C(C)(C)SSC(C)(C)[C@@H](C(=O)N[C@@H](Cc2ccc(OCCN)cc2)C(=O)N[C@@H](Cc2ccc3ccccc3c2)C(=O)NC2(C(=O)N[C@@H](CCCCNC(C)=O)C(=O)N[C@@H](CC(N)=O)C(=O)N[C@@H](Cc3cccnc3)C(=O)N(C)CC(=O)NCCOCCOCC(=O)NCCOCCOCC(=O)NCC[C@H](NC(=O)CCCCCCCCCCCCCCCCC(=O)O)C(=O)O)CCOCC2)NC1=O [Example 129, MeCO-r-Pen*-N-T-7MeW-K(Ac)-Pen*-AEF-2Nal-THP-K(Ac)-N-3Pya-Sar-PEG2PEG2gDabC18OH-COOH] (Ac-[dR][Pen]NT[Trp(7-Me)]K(Ac)[Pen][AEF][2Nal][Thp]K(Ac)N[3Pal][Sar][AEEA][AEEA]-X5; disulfide 2-7)	
0.037	CC(=O)NCCCC[C@@H]1NC(=O)[C@H](Cc2c[nH]c3c(C)cccc23)NC(=O)[C@H]([C@@H](C)O)NC(=O)[C@H](CC(N)=O)NC(=O)[C@@H](NC(C)=O)C(C)(C)SSC(C)(C)[C@@H](C(=O)N[C@@H](Cc2ccc(OCCN)cc2)C(=O)N[C@@H](Cc2ccc3ccccc3c2)C(=O)NC2(C(=O)N[C@@H](CCCCNC(=O)COCCOCCNC(=O)COCCOCCNC(=O)CC[C@H](NC(=O)[C@H](CNC(=O)CCCCCCCCCOc3cccc(C(=O)O)c3)NC(=O)CCCCCCCCCOc3cccc(C(=O)O)c3)C(=O)O)C(=O)N[C@@H](CC(N)=O)C(=O)N[C@@H](Cc3cccnc3)C(=O)N(C)CC(N)=O)CCOCC2)NC1=O [Example 134, MeCO-Pen*-N-T-7MeW-K(Ac)-Pen*-AEF-2Nal-THP-K(PEG2PEG2gEDAP(mXOH)2)-N-3Pya-Sar-CONH2]	
